pIC50: −log10 of the molar value.
Assays:
[1] = system: A549; assay: Antiproliferative activity against human A549 cells harboring KRAS G12S mutant assessed as growth inhibition at 1 uM measured after 72 hrs by SRB assay relative to control; format: functional; conditions: for inhibition of growth at 1 µM: Homo sapiens, A549, read-out: GI
[2] = system: MIA PaCa-2; assay: Antiproliferative activity against human MIA PaCa-2 cells harboring KRAS G12C mutant assessed as growth inhibition at 1 uM measured after 72 hrs by CCK8 assay relative to control; format: functional; conditions: for inhibition of growth at 1 µM: Homo sapiens, MIA PaCa-2, read-out: GI
[3] = system: MIA PaCa-2; assay: Antiproliferative activity against human MIA PaCa-2 cells harboring KRAS G12C mutant assessed as growth inhibition at 10 uM measured after 72 hrs by CCK8 assay relative to control; format: functional; conditions: for inhibition of growth at 10 µM: Homo sapiens, MIA PaCa-2, read-out: GI
[4] = system: MIA PaCa-2; assay: Antiproliferative activity against human MIA PaCa-2 cells harboring KRAS G12C mutant assessed as growth inhibition at 0.1 uM measured after 72 hrs by CCK8 assay relative to control; format: functional; conditions: for inhibition of growth at 0.1 µM: Homo sapiens, MIA PaCa-2, read-out: GI
[5] = system: MIA PaCa-2; assay: Antiproliferative activity against human MIA PaCa-2 cells harboring KRAS G12C mutant assessed as growth inhibition measured after 72 hrs by CCK8 assay; format: functional, cell-based
[6] = system: A549; assay: Antiproliferative activity against human A549 cells harboring KRAS G12S mutant assessed as growth inhibition at 0.1 uM measured after 72 hrs by SRB assay relative to control; format: functional; conditions: for inhibition of growth at 0.1 µM: Homo sapiens, A549, read-out: GI
[7] = system: A549; assay: Antiproliferative activity against human A549 cells harboring KRAS G12S mutant assessed as growth inhibition at 10 uM measured after 72 hrs by SRB assay relative to control; format: functional; conditions: for inhibition of growth at 10 µM: Homo sapiens, A549, read-out: GI
[8] = Inhibition of recombinant human N-terminal polyHis-tagged KRAS isoform 2B G12C mutant (Thr2 to Cys185 residues) expressed in Escherichia coli using GTP as substrate measured after 2 hrs by GTPase-glo assay
[9] = target: GTPase KRas (Homo sapiens, UniProt P01116); assay: Inhibition of recombinant human N-terminal His-tagged KRAS (2 to 185 residues) expressed in baculovirus infected Sf9 insect cells using GTP as substrate measured after 2 hrs by GTPase-glo assay
[10] = system: NCI-H358; assay: Antiproliferative activity against human NCI-H358 cells harboring KRAS G12C mutant assessed as growth inhibition measured after 72 hrs by SRB assay; format: functional, cell-based
[11] = system: GTPase KRas (Homo sapiens), P01116 [G12C]; conditions: NCI-H358, dose 10-1000 nM, time 6.0 hrs
[12] = system: GTPase KRas (Homo sapiens), P01116 [G12C]; assay: Inhibition of KRAS G12C mutant in human NCI-H358 cells assessed as reduction in ERK phosphorylation measured after 6 hrs by Western blot analysis; format: cell-based; conditions: dose 10-1000 nM
[13] = system: GTPase KRas (Homo sapiens), P01116 [G12C]; assay: Inhibition of KRAS G12C mutant in human NCI-H358 cells assessed as reduction in AKT phosphorylation measured after 6 hrs by Western blot analysis; format: cell-based; conditions: dose 10-1000 nM
[14] = system: NCI-H1975; assay: Antiproliferative activity against human NCI-H1975 cells harboring wild-type KRAS assessed as growth inhibition measured after 72 hrs by SRB assay; format: functional, cell-based; conditions: NCI-H1975, 72 h
[15] = system: A549; assay: Antiproliferative activity against human A549 cells harboring KRAS G12S mutant assessed as growth inhibition measured after 72 hrs by SRB assay; format: functional, cell-based; conditions: A549, 72 h

| pIC50 ([5]; Homo sapiens, MIA PaCa-2, 72 h) | pIC50 [8] | Structure (SMILES) | inhibition of growth at 1 µM [1] [%] | inhibition of growth at 1 µM [2] [%] | inhibition of growth at 10 µM [3] [%] | inhibition of growth at 0.1 µM [4] [%] | inhibition of growth at 0.1 µM [6] [%] | inhibition of growth at 10 µM [7] [%] | further results |
| --- | --- | --- | --- | --- | --- | --- | --- | --- | --- |
| < 5.00 | – | C=CC(=O)N1CCN(c2nc(=O)n(-c3c(C)ccnc3C(C)C)c3nc4c(cc23)oc2ccc(C)cc24)[C@@H](C)C1 | 1.74 | 42.7 | 57.8 | 40.6 | 2.95 | 27.8 | – |
| – | 5.45 | C=CC(=O)N1CCN(c2nc(=O)n(-c3c(C)ccnc3C(C)C)c3c(F)c(-c4c(O)cccc4F)ncc23)[C@@H](C)C1 (stereo in doubt; 26ab) | – | – | – | – | – | – | pIC50 ([9]; sf9): < 5.00; pIC50 ([10]; nci-h358): 6.06; pIC50 ([5]; mia paca-2): 5.82 |
| – | < 5.00 | C=CC(=O)N1CCN(c2nc(=O)n(-c3c(C(C)C)ncnc3C(C)C)c3c(Cl)c(-c4c(O)cccc4F)ncc23)[C@@H](C)C1 | – | – | – | – | – | – | pIC50 [9]: < 5.00 |
| – | – | C=CC(=O)N1CCN(c2nc(=O)n(-c3c(C)ccnc3C(C)C)c3c(F)c(-c4c(O)cccc4F)ncc23)[C@@H](C)C1 (stereo in doubt; 26a) [listing 1 of 2 here] | – | – | – | – | – | – | inhibition [11]: Dose-dependent effect; inhibition [12]: Dose-dependent effect; inhibition [13]: Dose-dependent effect |
| 5.10 | – | C=CC(=O)N1CCN(c2nc(=O)n(-c3c(C)ccnc3C(C)C)c3nc4c(cc23)oc2cc(F)c(F)cc24)[C@@H](C)C1 | 7.03 | 6.35 | 75.2 | 32.3 | -5.33 | 21.1 | – |
| – | – | C=CC(=O)N1CCN(c2nc(=O)n(-c3c(C)ccnc3C(C)C)c3nc(-c4c(O)cccc4F)ncc23)[C@@H](C)C1 | -5.05 | 8.56 | 49 | 5.39 | 5.83 | 23 | – |
| < 5.00 | – | C=CC(=O)N1CCN(c2nc(=O)n(-c3c(C)ccnc3C(C)C)c3nc4c(cc23)oc2ccc(F)cc24)[C@@H](C)C1 | 6.97 | 35.4 | 52.8 | 15.9 | 2.52 | 24.6 | – |
| – | – | C=CC(=O)N1CCN(c2nc(=O)n(-c3c(C)ccnc3C(C)C)c3nc4c(cc23)oc2cccc(F)c24)[C@@H](C)C1 | 2.22 | 19.3 | 48.7 | 35.3 | 7.06 | 28.6 | – |
| 7.54 | 5.90 | C=CC(=O)N1CCN(c2nc(=O)n(-c3c(C)ccnc3C(C)C)c3nc(-c4c(O)cccc4F)c(F)cc23)[C@@H](C)C1 [SOTORASIB] | – | – | – | – | – | – | growth inhibition (GI) [1]: 5.81%; pIC50 [14]: < 5.00; growth inhibition (GI) [2]: 64.63%; growth inhibition (GI) [3]: 59.49%; pIC50 [15]: < 5.00; growth inhibition (GI) [4]: 49.49%; pIC50 ([10]; Homo sapiens, NCI-H358, 72 h): > 7.80; growth inhibition (GI) [6]: 4.13%; growth inhibition (GI) [7]: 24.09% |
| – | – | C=C(F)C(=O)N1CCN(c2nc(=O)n(-c3c(C)ccnc3C(C)C)c3cc(-c4c(O)cccc4F)ncc23)[C@@H](C)C1 | 5.95 | 29.2 | 35 | 25.1 | 5.24 | 19 | – |
| – | – | C=CC(=O)N1CCN(c2nc(=O)n(-c3c(C)ccnc3C(C)C)c3nc4c(cc23)oc2cccc(O)c24)[C@@H](C)C1 | 35.3 | 1.71 | 9.78 | 1.41 | 32.8 | 23.1 | – |
| – | < 5.00 | C=CC(=O)N1CCN(c2nc(=O)n(-c3c(C(C)C)cccc3C(C)C)c3c(F)c(-c4c(O)cccc4F)ncc23)[C@@H](C)C1 | – | – | – | – | – | – | pIC50 [9]: < 5.00 |
| – | – | Cc1ccnc(C(C)C)c1-n1c(=O)nc(N2CCN(C(=O)/C=C/CN(C)C)C[C@@H]2C)c2cc3oc4cccc(F)c4c3nc21 | 2.99 | 14.9 | 32 | 1.88 | 7.85 | 2.64 | – |
| 5.97 | – | C=CC(=O)N1CCN(c2ncnc3c(F)c(-c4c(O)cccc4F)c(Cl)cc23)CC1 | 6.3 | 34.9 | 62.5 | 21 | 8.27 | 31.2 | – |
| 6.37 | 5.74 | C=CC(=O)N1CCN(c2nc(=O)n(-c3c(C(C)C)ncnc3C(C)C)c3c(F)c(-c4c(O)cccc4F)ncc23)[C@@H](C)C1 | – | – | – | – | – | – | pIC50 [14]: 5.05; pIC50 [9]: < 5.00; pIC50 [15]: 5.49; pIC50 ([10]; Homo sapiens, NCI-H358, 72 h): 6.59 |
| – | 5.75 | C=CC(=O)N1CCN(c2nc(=O)n(-c3c(C)ccnc3C(C)C)c3c(F)c(-c4c(O)cccc4F)ncc23)[C@@H](C)C1 (stereo in doubt; 26aa) | – | – | – | – | – | – | pIC50 ([9]; sf9): < 5.00; pIC50 ([10]; nci-h358): 6.52; pIC50 ([5]; mia paca-2): 6.22 |
| – | – | C=CC(=O)N1CCN(c2nc(=O)n(-c3c(C)ccnc3C(C)C)c3cc(-c4c(O)cccc4F)ncc23)[C@@H](C)C1 | 7.53 | 24.8 | 64.2 | 4.05 | 9.11 | 52.7 | – |
| – | – | CC#CC(=O)N1CCN(c2nc(=O)n(-c3c(C)ccnc3C(C)C)c3nc4c(cc23)oc2cccc(F)c24)[C@@H](C)C1 | 4.36 | 14.2 | 27.3 | 0.49 | -1.01 | 22.3 | – |
| 5.57 | 5.62 | C=CC(=O)N1CCN(c2nc(=O)n(-c3c(C)ccnc3C(C)C)c3c(Cl)c(-c4c(O)cccc4F)ncc23)[C@@H](C)C1 | – | – | – | – | – | – | pIC50 [14]: < 5.00; pIC50 [9]: < 5.00; pIC50 [15]: < 5.00; pIC50 ([10]; Homo sapiens, NCI-H358, 72 h): 5.92 |
| < 5.00 | – | C=CC(=O)N1C2CCC1CN(c1nc(=O)n(-c3c(C)ccnc3C(C)C)c3nc4c(cc13)oc1cccc(F)c14)C2 | 9.32 | 14.5 | 53.2 | 8.58 | 4.85 | 35.7 | – |
| – | 5.73 | C=CC(=O)N1CCN(c2nc(=O)n(-c3c(C)ccnc3C(C)C)c3c(F)c(-c4c(O)cccc4F)ncc23)[C@@H](C)C1 (stereo in doubt; 26a) [listing 2 of 2 here] | – | – | – | – | – | – | pIC50 [14]: < 5.00; pIC50 [9]: < 5.00; pIC50 [15]: < 5.00; pIC50 ([10]; nci-h358): 6.59; pIC50 ([5]; mia paca-2): 6.28 |
| – | – | C=C(C(=O)N1CCN(c2nc(=O)n(-c3c(C)ccnc3C(C)C)c3cc(-c4c(O)cccc4F)ncc23)[C@@H](C)C1)C(F)(F)F | 6.65 | 18.1 | 85.5 | 6.23 | 2.29 | 91.6 | – |
| – | – | CC#CC(=O)N1CCN(c2nc(=O)n(-c3c(C)ccnc3C(C)C)c3cc(-c4c(O)cccc4F)ncc23)[C@@H](C)C1 | 3.57 | 19.7 | 41.8 | 20.2 | 3.69 | 56.7 | – |

— ChEMBL document CHEMBL4732119, “Design, synthesis and pharmacological evaluation of bicyclic and tetracyclic pyridopyrimidinone analogues as new KRAS inhibitors” (Eur J Med Chem, 2021)
